{
  "source": "patent US20080039500A1",
  "about": "“Cerebral Infarction Suppressant” (priority 2004, published 2008)",
  "key": {"liver function": {"test_system": "liver function", "details": "patients who received the agent; cited from earlier work"}, "cerebral infarction [1]": {"test_system": "cerebral infarction", "assay": "Example 1: concomitant use of histidine and H3-receptor blocker, size of infarction after 2 h middle cerebral artery occlusion (TTC staining)", "format": "in vivo, rat", "text": "These rats were anesthetized with a gas mixture of 2% halothane, 49% oxygen and 49% laughing gas, and kept under spontaneous breathing. Subsequently, a median incision was made in the neck of the rat placed on its back, and the right common carotid artery was exposed. […] The tip of the nylon thread was placed 18 mm from the bifurcation. After suture of the incision of the skin, the rats were allowed to recover from anesthesia. During surgery, an electronic thermometer was inserted into the temporal muscle, and the body temperature was maintained at 37.0±0.1° C. with a lamp. […] Five minutes before reperfusion of blood flow, the rats were anesthetized again. […] Histidine was first dissolved in physiological saline adjusted to pH 4.0 with hydrochloric acid, and then the pH was resumed to 6.0 with sodium hydroxide. Further, 5 mg/kg of thioperamide was intraperitoneally injected to each thioperamide administration group. After recovery from anesthesia, the rats were allowed to access food and water freely. Twenty-four hours after recovery of blood flow, sodium pentobarbital was intraperitoneally administered to the rats for anesthesia. Subsequently, the brain was perfused with physiological saline, and the rat was decapitated. The brain was quickly dissected, and rinsed in physiological saline. The brain was sliced coronally between the optic chiasm and the caucal edge of the mammillary body at a thickness of 2 mm. […] As a result, triphenyltetrazolium chloride was reduced due to the action of dehydrogenase present in viable cells, and the tissue was stained in dark red. On the other hand, the dead tissue in the infarcted area was not stained. These brain slices were preserved in phosphate-buffered formalin overnight. Then, an investigator who was unaware of histidine administration measured the size of infarction using computer-aided planimetry."}, "[2]": {"test_system": "pyramidal neurons in the hippocampal CA-1 region", "details": "administration prior to transient forebrain ischemia, rat; cited from earlier work"}, "neuronal death": {"test_system": "neuronal death", "details": "cited from earlier work"}, "cerebral infarction [3]": {"test_system": "cerebral infarction", "assay": "Example 2: concomitant use of histidine and HMT inhibitor, size of infarction after middle cerebral artery occlusion", "experimental": "Twenty-five male Wistar rats weighing about 300 g were divided into 4 groups consisting of histidine 1000 mg/kg administration group, histidine 200 mg/kg+metoprine 10 mg/kg administration group, histidine 500 mg/kg+metoprine 10 mg/kg administration group, and histidine 1000 mg/kg+metoprine 10 mg/kg administration group.\nThe root of the right middle cerebral artery of these rats was occluded and blood flow was recovered as shown in the Example 1. Then, 200 mg/kg, 500 mg/kg or 1000 mg/kg of histidine was intraperitoneally administered to the rats, and 10 mg/kg of metoprine was further administered to the metoprine administration groups, as shown in the Example 1.\nThe samples were prepared by treating each rat as shown in the Example 1 and the size of infarction was measured. The obtained size of cerebral infarction was subjected to analysis of variance and the Bonferroni test."}, "[4]": {"details": "histidine 200 mg/kg i.p. alone, single dose after reperfusion, 24 h"}, "[5]": {"details": "histidine 500 mg/kg i.p. alone after reperfusion, 24 h"}, "[6]": {"details": "histidine 1000 mg/kg i.p. alone after reperfusion, 24 h"}, "[7]": {"details": "Example 2, histidine 1000 mg/kg i.p. alone after reperfusion, 24 h"}},
  "data": [
    {"smiles": "CC1=NN(c2ccccc2)C(=O)C1", "note": "[edaravone]", "values": [
      {"measurement": "patients with abnormal values in laboratory tests on the liver function", "setting": "liver function", "value": 21.4, "unit": "%"}
    ]},
    {"smiles": "N[C@@H](Cc1c[nH]cn1)C(=O)O", "note": "[Histidine, histidine]", "values": [
      {"measurement": "size of cerebral infarction, Striatum", "setting": "cerebral infarction [1]; histidine 200 mg/kg i.p. alone, single dose after reperfusion (2 h MCA occlusion), 24 h after recovery of blood flow", "value": "35.3 ± 21.6", "unit": "mm^3"},
      {"measurement": "size of cerebral infarction, Cerebral cortex", "setting": "cerebral infarction [1]; [4]", "value": "106.3 ± 63.0", "unit": "mm^3"},
      {"measurement": "size of cerebral infarction, Total", "setting": "cerebral infarction [1]; [4]", "value": "141.6 ± 83.1", "unit": "mm^3"},
      {"measurement": "size of cerebral infarction, Cerebral cortex", "setting": "cerebral infarction [1]; [5]", "value": "86.0 ± 49.9", "unit": "mm^3"},
      {"measurement": "size of cerebral infarction, Striatum", "setting": "cerebral infarction [1]; [5]", "value": "30.5 ± 23.3", "unit": "mm^3"},
      {"measurement": "size of cerebral infarction, Total", "setting": "cerebral infarction [1]; [5]", "value": "116.5 ± 69.7", "unit": "mm^3"},
      {"measurement": "size of cerebral infarction, Cerebral cortex", "setting": "cerebral infarction [1]; [6]", "value": "114.2 ± 33.9", "unit": "mm^3"},
      {"measurement": "size of cerebral infarction, Striatum", "setting": "cerebral infarction [1]; [6]", "value": "47.8 ± 16.3", "unit": "mm^3"},
      {"measurement": "size of cerebral infarction, Total", "setting": "cerebral infarction [1]; [6]", "value": "162.0 ± 45.8", "unit": "mm^3"},
      {"measurement": "suppressive effects on cerebral infarction", "setting": "cerebral infarction [1]; histidine alone in a single dose after ischemia (200, 500, 1000 mg/kg)", "value": "not found"},
      {"measurement": "programmed death of neurons after transient ischemia", "setting": "[2]", "value": "depressed"},
      {"measurement": "neuronal death 7 days after ischemia caused by apoptosis", "setting": "neuronal death; histidine 4 times: shortly, 6, 24 and 48 hours after 15 minutes of transient ischemia, rats", "value": "depressed"},
      {"measurement": "suppressive effects on cerebral infarction", "setting": "cerebral infarction [3]; 1000 mg/kg of histidine in a single dose after ischemia, without metoprine", "value": "not found"},
      {"measurement": "size of cerebral infarction, Cerebral cortex", "setting": "cerebral infarction [3]; [7]", "value": "87.8 ± 42.5", "unit": "mm^3"},
      {"measurement": "size of cerebral infarction, Striatum", "setting": "cerebral infarction [3]; [7]", "value": "57.2 ± 20.2", "unit": "mm^3"},
      {"measurement": "size of cerebral infarction, Total", "setting": "cerebral infarction [3]; [7]", "value": "145.0 ± 59.2", "unit": "mm^3"}
    ]},
    {"smiles": "COc1ccc(CN(CCN(C)C)c2ccccn2)cc1", "note": "[mepyramine]", "values": [
      {"measurement": "alleviation of nerve cell death by histidine in presence of histamine receptor blocker", "setting": "neuronal death; co-administered with histidine, ranitidine used concomitantly with mepyramine", "value": "slightly suppressed"}
    ]}
  ]
}
